The values that follow come from patent US10744087B2, “Method to slow ventricular rate” (InCarda Therapeutics, Inc., priority 2018, dated 2020).

Counter-ions that a name gives are not always drawn. Like-named read-outs stand apart in the source and are kept apart here.

Data set [1] deals with pig models of induced atrial fibrillation. Briefly: Intratracheal metoprolol in pig model of acetylcholine/burst-pacing induced atrial fibrillation (Example 5): AF duration, PR interval, dominant frequency, ventricular rate. Type of data set: in vivo, male Yorkshire pigs. Conditions: for reduction of ventricular rate during AF: IT metoprolol 0.2 mg/kg vs baseline AF with sterile water. Here is the method:
Experiments described herein (e.g., Examples 5-7) complied with the National Institutes of Health Guide for the Care and Use of Laboratory Animals as well as the Declaration of Helsinki. The protocol was approved by the institutional animal use committee of Beth Israel Deaconess Medical Center (Boston Mass.). The investigations were conducted in male Yorkshire pigs weighing 46±1.8 kg. The animals were preanesthetized with telazol (4.7 mg/kg, intramuscular) and subsequently were further anesthetized using alpha-chloralose (80-mg/kg IV bolus followed by 24-mg/kg/h continuous IV infusion). The pigs were intubated and ventilated at a constant rate of 12 breaths/min and tidal volume of 400 ml per stroke. The catheters were positioned under fluoroscopic control. Electrograms were recorded from a decapolar electrode catheter positioned in the LV. Mean arterial pressure (MAP) was continuously recorded from a femoral arterial sheath. LV blood pressure was continuously monitored from a pigtail catheter. A catheter was introduced into the pericardial space via the right atrial appendage for delivery of intrapericardial acetylcholine. Atrial pacing at 160 beats/min was accomplished by delivering electrical stimuli to the right atrial catheter electrodes. Electrograms were monitored using a Prucka CardioLab workstation (GE Medical Systems, Milwaukee Wis.) from atrial and ventricular sites. For intratracheal instillation of metoprolol solution or sterile water, a 5 Fr angiography catheter was introduced into the trachea via the endotracheal tube, extending ˜1 cm past the tube, and its tip was positioned under fluoroscopy at the tracheal carina level. Metoprolol solutions of 0.2 mg/kg for intratracheal instillation were prepared by dilution of stock solution of 15.3 mg/ml in saline, originally obtained from metoprolol in powder form by dilution in dimethyl sulfoxide (DMSO). Plasma samples were analyzed using a high-performance liquid chromatography tandem mass spectrometric assay at Climax Laboratories, Inc. (San Jose Calif.). AF was induced with 1 mL of a 102.5 mM solution of acetylcholine bolus delivered through the pericardial catheter, followed by saline flush (2 mL). Burst pacing at a cycle length of 178 ms was performed at 1 minute after intrapericardial administration of ACh. After AF initiation, lavage was carried out with 20 ml of saline. For the intratracheal instillation of metoprolol (2 ml of 0.2 mg/kg concentration followed by 3 ml of air in a 5 ml syringe), the agent was administered in a single “push” via the modified angiography catheter positioned in the endotracheal tube at the beginning of the inspiration phase after two minutes of consolidated atrial fibrillation. Sterile water (2 ml) was used as a placebo for intratracheal instillation in the baseline AF. A washout period of 30 to 60 min was allowed between inductions of each occurrence of AF. AF duration was compared starting at 2 min after AF was induced, when the IT instillation was administered. The average ventricular rate for each AF was obtained by the mean of six measurements of ventricular rate performed each 30 seconds between the IT delivery (sterile water or metoprolol instillation) and the AF conversion to sinus rhythm. Contractility (LV dP/dt) and MAP were recorded during atrial pacing at 160 beats/min before AF was induced and after it was terminated. Statistical analyses were performed using the SAS system (version 9.4) to apply ANOVA with post-hoc Dunnett's test for each time point. Data are reported as means±SEM. Statistical significance was assumed at p<0.05.

Data set [2] relates to atrial arrhythmia. Conditions: intravenous, 5 to 15 mg bolus doses; cited from earlier work.
Data set [3] has as its system animal models of AF. The data set is described as follows: Intratracheal co-delivery of metoprolol and flecainide in pig AF models (Example 7). Type of data set: in vivo, male Yorkshire pigs. Here is the method:
Experimental animal models of AF (male Yorkshire pigs), and study reagents (metoprolol and flecainide) were prepared according to similar procedures described in Examples 5 and 6. In this example, the animals received IT administration of either metoprolol alone (0.2 mg/kg or 0.4 mg/kg), a cocktail of metoprolol and flecainide (0.2 mg/kg and 0.75 mg/kg, respectively, or 0.4 mg/kg and 0.75 mg/kg, respectively), or flecainide alone (0.75 mg/kg).

For data set [4], the system named is pig models of induced atrial fibrillation. The data set is described as follows: Left ventricular contractility (LV dP/dt) and mean arterial pressure before and after AF, atrial pacing 160 beats/min (Example 5). The format is in vivo, male Yorkshire pigs. Conditions: IT metoprolol 0.2 mg/kg. Here is the method: The catheters were positioned under fluoroscopic control. Electrograms were recorded from a decapolar electrode catheter positioned in the LV. Mean arterial pressure (MAP) was continuously recorded from a femoral arterial sheath. LV blood pressure was continuously monitored from a pigtail catheter. A catheter was introduced into the pericardial space via the right atrial appendage for delivery of intrapericardial acetylcholine. Atrial pacing at 160 beats/min was accomplished by delivering electrical stimuli to the right atrial catheter electrodes. Electrograms were monitored using a Prucka CardioLab workstation (GE Medical Systems, Milwaukee Wis.) from atrial and ventricular sites. For intratracheal instillation of metoprolol solution or sterile water, a 5 Fr angiography catheter was introduced into the trachea via the endotracheal tube, extending ˜1 cm past the tube, and its tip was positioned under fluoroscopy at the tracheal carina level. AF duration was compared starting at 2 min after AF was induced, when the IT instillation was administered. The average ventricular rate for each AF was obtained by the mean of six measurements of ventricular rate performed each 30 seconds between the IT delivery (sterile water or metoprolol instillation) and the AF conversion to sinus rhythm. Contractility (LV dP/dt) and MAP were recorded during atrial pacing at 160 beats/min before AF was induced and after it was terminated. Statistical analyses were performed using the SAS system (version 9.4) to apply ANOVA with post-hoc Dunnett's test for each time point. Data are reported as means±SEM. Statistical significance was assumed at p<0.05.

Data set [5] has as its system pig models with induced atrial fibrillation. The data set is described as follows: Intratracheal nebivolol or metoprolol, alone or combined with flecainide, in pig models with induced atrial fibrillation (Example 6). Type of data set: in vivo, male Yorkshire pigs. Here is the method: The investigations were conducted in male Yorkshire pigs. The animals were preanesthetized with telazol (4.7 mg/kg, intramuscular) and subsequently were further anesthetized using alpha-chloralose (80-mg/kg IV bolus followed by 24-mg/kg/h continuous IV infusion). The pigs were intubated and ventilated at a constant rate of 12 breaths/min and tidal volume of 400 ml per stroke.
The catheters were positioned under fluoroscopic control. Electrograms were recorded from a decapolar electrode catheter positioned in the LV. Mean arterial pressure (MAP) was continuously recorded from a femoral arterial sheath. LV blood pressure was continuously monitored from a pigtail catheter. A catheter was introduced into the pericardial space via the right atrial appendage for delivery of intrapericardial acetylcholine. Atrial pacing at 160 beats/min was accomplished by delivering electrical stimuli to the right atrial catheter electrodes. Electrograms were monitored using a Prucka CardioLab workstation (GE Medical Systems, Milwaukee Wis.) from atrial and ventricular sites. For intratracheal instillation of metoprolol solution or sterile water, a 5 Fr angiography catheter was introduced into the trachea via the endotracheal tube, extending ˜1 cm past the tube, and its tip was positioned under fluoroscopy at the tracheal carina level.
Metoprolol obtained in powder form was used to prepare a stock solution of 15.3 mg/ml by dissolving the drug in 100% dimethyl sulfoxide (DMSO). A volume was withdrawn from the stock solution to achieve a 2 mg/kg IT dose and was supplemented with sterile water to attain a 2 ml total volume for bolus injection.
For Nebivolol (racemic mixtures of d- and l-nebivolol), a stock solution of 25 mg/ml was prepared by dissolving the drug in 100% DMSO. The dose was 0.3 mg/kg for intratracheal instillation. The corresponding volume was withdrawn from the stock solution based on body weight of the pig, and the allocated volume was completed with sterile water to attain 2 ml total volume. The administration was made with a 5 cc syringe with 2 ml of 0.3 mg/kg nebivolol solution and 3 ml of air.
AF was induced with 1 mL of a 102.5 mM solution of acetylcholine bolus delivered through the pericardial catheter, followed by saline flush (2 mL). Burst pacing at a cycle length of 178 ms was performed at 1 minute after intrapericardial administration of ACh. After AF initiation, lavage was carried out with 20 mL of saline.
For the intratracheal instillation of metoprolol (0.2 mg/kg or 0.4 mg/kg), nebivolol (0.3 mg/kg), flecainide (0.75 mg/kg), or cocktail of metoprolol and flecainide (0.2 mg/kg and 0.75 mg/kg, respectively), the drug agent was administered in 2 mL total volume in a single “push” of 2-3 seconds, followed by 3 ml of air in a 5 ml syringe, via the […] Sterile water (2 ml) was used as a placebo for intratracheal instillation in the baseline AF. A washout period of 30 to 60 min was allowed between inductions of each occurrence of AF.
AF duration was compared starting at 2 min after AF was induced, when the IT instillation was administered. The average ventricular rate for each AF was obtained by the mean of six measurements of ventricular rate performed each 30 seconds between the IT delivery (sterile water or metoprolol instillation) and the AF conversion to sinus rhythm.
For the study of nebivolol, in 2 of the 4 animals that were tested, at 60 min following nebivolol administration, flecainide was administered to test the effect of combined use of nebivolol and flecainide. For the study of metoprolol, given that metoprolol can have a short half-life in vivo, the effect of combined use of metoprolol and flecainide was tested by giving a second IT dose of metoprolol-flecainide cocktail 60 min following the first IT dose of metoprolol in the animals.

For data set [6] the following is noted: cited from earlier work.
Data set [7] has as its system new onset atrial fibrillation or flutter. Conditions: esmolol-treated patients with new onset atrial fibrillation or flutter; cited from earlier work.
The test system of data set [8] is atrial fibrillation. To be noted: given in oral pills; several studies (Ferreira 1997 review); cited from earlier work.
Setting [9] is: AF induced 30 min after IT nebivolol 0.3 mg/kg.

As to `COCCc1ccc(OCC(O)CNC(C)C)cc1` (racemic) [metoprolol, (±) 1-(isopropylamino)-3-[p-(2-methoxyethyl)phenoxy]-2-propanol], in data set [1] (IT metoprolol 0.2 mg/kg), the “occurrence of atrial flutter during conversion” value is listed as “In none of the animals did atrial flutter occur”. In addition, the “reduction of ventricular rate during AF” value is reported as 12±2.6% in data set [1], 32 beats/min in data set [1] (p=0.007) and “moderate” in data set [5] (AF 30 min after IT metoprolol 0.2 mg/kg). Moreover, the “reduction of AF dominant frequency” value in data set [1] (IT metoprolol 0.2 mg/kg vs baseline AF, p=0.04) was determined as 31%. Further, the “shortening of the AF duration” value in data set [1] (IT metoprolol 0.2 mg/kg vs placebo baseline AF (sterile water IT), p=0.018) is 20.4±4.9%; in data set [5] (AF induced 30 min after IT metoprolol 0.2 mg/kg) it was “about 36%”; in data set [5] (AF induced right after IT metoprolol 0.2 mg/kg alone, vs placebo baseline AF), “about 28%”. Further, the AF dominant frequency in data set [1] (IT metoprolol 0.2 mg/kg, baseline AF 8.7±0.94) turned out to be 6±1.1 Hz. The “ventricular rate during AF” value in data set [1] (IT metoprolol 0.2 mg/kg, baseline AF 272±13.7) is listed as 240±12.6 beats/min. The AF duration in data set [1] (IT metoprolol 0.2 mg/kg, placebo baseline 10.3±2.0, mean±SEM) worked out at 8.0 ± 1.5 min. Also, in data set [1] (metoprolol 0.2 mg/kg bolus IT, from 174±11.2, p=0.07), the PR interval came to 182 ± 11.4 ms. Moreover, the “increase in PR interval” value in data set [1] (metoprolol 0.2 mg/kg bolus IT, trend, p=0.07) is 4%. Besides, the “conversion rate of atrial arrhythmia” value in data set [2] was 13%. In addition, in data set [2], the “patients with rate reduced at least 25% or to less than 100 bpm” value is given as 68%. In addition, the “reduction in the AF duration” value in data set [3] (IT 0.2 mg/kg metoprolol alone) is listed as “about 20%”; in data set [3] (IT 0.4 mg/kg metoprolol alone), “about 27%”. For the same compound, the “reduction in the average ventricular rate during the AF conversion” value in data set [3] (IT 0.2 mg/kg metoprolol alone) and in data set [3] (IT 0.4 mg/kg metoprolol alone) was “about 10%” throughout. In data set [4] (before AF 125±4.3, p=0.26, pacing 160 beats/min), the “MAP after AF” value was determined as 118±4.0. Further, in data set [4] (before AF 2337±252.7, pacing 160 beats/min), the “contractility (LV dP/dt) after AF conversion” value is on record as 1951±277.9. Also, the “change in MAP” value in data set [4] (before vs after AF) is given as “no significant changes”. Also, the “reduction in contractility (LV dP/dt) after conversion” value in data set [4] (pacing 160 beats/min, p=0.006, not different from AF baseline reduction (p=0.85)) stood at 17.5±4.0%. Besides, the “reduction in ventricular rate during AF” value in data set [5] (AF induced right after IT metoprolol 0.2 mg/kg, vs baseline AF) is reported as “about 13%”.

Turning to `OC(CNCC(O)C1CCc2cc(F)ccc2O1)C1CCc2cc(F)ccc2O1` (racemic) [nebivolol, 2,2′-Azanediylbis(1-(6-fluorochroman-2-yl)ethanol)], in data set [6] (water), the water solubility entry is reported as “low water solubility”. Also, the “reduction in ventricular rate during AF” value is on record as “about 22%” in data set [5] (setting [9]) and “about 10%” in data set [5] (AF induced right after IT nebivolol 0.3 mg/kg). In addition, the “shortening of the AF duration” value is listed as “about 33%” in data set [5] (setting [9]) and “about 24%” in data set [5] (IT nebivolol 0.3 mg/kg, administered right before the AF induction, vs placebo baseline AF).

As for `OC(CNCC(O)C1CCc2cc(F)ccc2O1)C1CCc2cc(F)ccc2O1` (centres unmarked) [Nebivolol hydrochloride], the solubility result is “sparingly soluble” in data set [6] (in ethanol, propylene glycol, and polyethylene glycol); “very slightly soluble” in data set [6] (in hexane, dichloromethane, and methylbenzene); “soluble” in data set [6] (in methanol, dimethylsulfoxide, and N,N-dimethylformamide).

As to `COC(=O)CCc1ccc(OCC(O)CNC(C)C)cc1` (centres unmarked) [esmolol], the “patients converted to sinus rhythm” value in data set [7] is reported as “about 50%”.

In the case of `O=C(NCC1CCCCN1)c1cc(OCC(F)(F)F)ccc1OCC(F)(F)F` (centres unmarked) [flecainide], the “reduction in the average ventricular rate during AF” value in data set [3] (IT 0.75 mg/kg flecainide alone) was “about 10%”.

`CC(C)NCC(O)c1ccc(NS(C)(=O)=O)cc1` (centres unmarked) [soltalol]: the “efficacy for acute conversion of atrial fibrillation to normal sinus rhythm” value in data set [8] is 8-49%.
